{
  "source": "patent US7371207B2",
  "about": "(Wyeth, priority 2002, dated 2008)",
  "key": {"[1]": {"system": "gene expression in the kidney of mice expressing ΔAF1-ERα", "test": "Real-time PCR of kidney gene expression in ERαERβKO or ERαKO mice expressing ΔAF1-ERα", "protocol": "Kidney gene expression values were determined by real-time PCR for each individual animal and normalized for GAPDH expression. The mean expression level in vehicle-treated WT mice was defined as 1 for each gene. *p<0.01 for comparison to vehicle treated animals.\nOne week later, the animals were ovariectomized. Commencing the day after ovariectomy, each animal received a daily subcutaneous treatment with vehicle (50% DMSO, 50% phosphate buffered saline) or vehicle containing treatments for six weeks. Each group consisted of six or seven animals. Approximately 2 hours following the final treatment, the animals were euthanized with selected tissues frozen in liquid nitrogen for RNA analysis or on dry ice for histology."}, "[2]": {"molecular_target": "ERα (Homo sapiens, UniProt P03372)", "sequence (P03372 whole entry)": "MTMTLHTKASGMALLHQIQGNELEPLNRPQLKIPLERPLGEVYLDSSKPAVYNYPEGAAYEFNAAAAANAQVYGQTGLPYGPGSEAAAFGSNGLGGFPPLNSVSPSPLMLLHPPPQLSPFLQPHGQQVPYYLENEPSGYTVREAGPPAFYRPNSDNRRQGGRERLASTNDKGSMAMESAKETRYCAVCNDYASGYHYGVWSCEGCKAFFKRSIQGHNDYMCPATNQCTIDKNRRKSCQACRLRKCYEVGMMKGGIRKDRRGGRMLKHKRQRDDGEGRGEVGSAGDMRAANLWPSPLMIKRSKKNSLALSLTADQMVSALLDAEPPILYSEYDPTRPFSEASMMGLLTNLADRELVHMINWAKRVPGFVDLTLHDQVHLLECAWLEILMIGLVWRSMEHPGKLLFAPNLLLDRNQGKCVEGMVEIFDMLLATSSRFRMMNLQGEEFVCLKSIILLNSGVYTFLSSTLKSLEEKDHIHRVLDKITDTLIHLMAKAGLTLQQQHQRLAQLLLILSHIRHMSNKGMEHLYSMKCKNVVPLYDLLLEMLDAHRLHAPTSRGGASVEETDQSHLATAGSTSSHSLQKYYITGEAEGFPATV", "details": "cited from earlier work"}, "[3]": {"system": "gene expression in the kidney", "test": "Real-time PCR of kidney gene expression in ovariectomized WT mice", "details": "10 μg/kg/day E2 or 5 mg/kg/day tamoxifen, 6 weeks, FIG. 8", "description": "FIGS. 5A-5B show a series of graphs showing expression levels for various genes. […] (B) Uterine wet weights (mg) and gene expression values (mean±SEM).\nFIGS. 6A-6D show a series of bar graphs depicting relative expression levels for various genes.\n(§1) One week later, the animals were ovariectomized."}, "[4]": {"system": "gene expression in the kidney", "test": "In situ hybridization of kidney, ovariectomized mice", "format": "in vivo, mouse", "details": "regulated only in tubule epithelial cells", "description": "(§2) No signal was detected with the corresponding sense probes.\n(§3) Generally, in situ hybridization comprises the following major steps: (1) fixation of tissue or biological structure to be analyzed; (2) prehybridization treatment of the biological structure to increase accessibility of target nucleic acid, and to reduce nonspecific binding; (3) hybridization of the mixture of nucleic acids to the nucleic acid in the biological structure or tissue; (4) post-hybridization washes to remove nucleic acid fragments not bound in the hybridization, and (5) detection of the hybridized nucleic acid fragments. The probes used in such applications are typically labeled, for example, with radioisotopes or fluorescent reporters. Preferred probes are sufficiently long, for example, from about 50, 100, or 200 nucleotides to about 1000 or more nucleotides, to enable specific hybridization with the target nucleic acid(s) under stringent conditions.\nas §1"}, "[5]": {"system": "gene expression in the kidney", "test": "In situ hybridization of kidney, ovariectomized rats", "format": "in vivo, rat", "description": "as §2, §3, §1"}, "[6]": {"system": "gene expression in the pituitary", "test": "GeneChip microarray survey of E2 regulated gene expression, pituitary", "format": "in vivo, mouse", "details": "mouse, in vivo", "description": "as §1"}, "[7]": {"system": "gene expression in the kidney", "test": "GeneChip microarray survey of E2 regulated gene expression, kidney", "description": "(§4) FIG. 1 depicts a pattern analysis generated by a GeneChip microarray analysis. […] Two hours following the final dose, the mice were euthanized and 13 tissues removed for RNA preparation. Two independent studies were performed, with total RNA pooled from two groups of three animals for each condition. Gene expression was quantified by GeneChip microarrays using murine U74 sub A arrays. Data were analyzed for patterns indicating either ERα or ERβ dependent regulation as shown. […] The number of genes in each tissue that matched the theoretical induction (↑) or repression (↓) patterns for ERα or ERβ are indicated.\nFIGS. 2A-2C show a series of bar graphs showing gene expression levels of known genes regulated in the kidney in an ERα pattern. […] Expression was measured in two independent sets of animals, with two groups of animals for each treatment in each study. A gene name abbreviation is shown above each graph, with the corresponding Unigene designation shown below.\nas §1\n(§5) GeneChip—Total RNA was prepared separately from each individual organ by using Trizol (Invitrogen) followed by subsequent repurification on Rneasy columns (Qiagen). In general, two pools of RNA were created using equal amounts of RNA from three mice. For small organs such as pituitary, an equal amount of RNA from six animals was combined.\n(§6) Target Preparation and Array Hybridization—Total RNA was used to generate biotin labeled cRNA target as described (8) which was hybridized to the murine MG_U74Av2 probe arrays (Affymetrix, Santa Clara, Calif.) for 16 h at 45° C. Eleven biotin-labeled cRNAs at defined concentration were spiked into each hybridization and used to convert average difference values to frequencies expressed as parts per million.\n(§7) The resulting data set was queried for genes whose regulation was dependent on ERα or ERβ."}, "[8]": {"system": "gene expression in the uterus", "test": "GeneChip microarray survey of E2 regulated gene expression, uterus", "description": "as §4, §1, §5, §6, §7"}, "[9]": {"details": "10 μg/kg/day E2 or 5 mg/kg/day tamoxifen, 6 weeks, FIG. 8"}, "[10]": {"details": "WT versus ΔAF1-ERα mice, E2 versus tamoxifen"}, "[11]": {"details": "Table II: mouse uterus and human endometrium"}},
  "data": [
    {"compound": "C[C@]12CC[C@@H]3c4ccc(O)cc4C[C@@H](CCCCCCCCC[S+]([O-])CCCC(F)(F)C(F)(F)F)[C@H]3[C@@H]1CC[C@@H]2O", "note": "(some centres unmarked) [ICI182780]", "values": [
      {"measurement": "effect on E2 induction of CYP7B1 in kidney", "setting": "[1]; 10 μg/kg/day E2 + 5 mg/kg/day ICI182780, 6 weeks, FIG. 8", "value": "blocked"},
      {"measurement": "effect on E2 regulation of gene expression in the kidney", "setting": "[1]; 10 μg/kg/day E2 + 5 mg/kg/day ICI182780, FIG. 8", "value": "complete antagonist"}
    ]},
    {"compound": "CCCc1c(-c2ccc(O)cc2)nn(-c2ccc(O)cc2)c1-c1ccc(O)cc1", "note": "[PPT, 4-propyl-1,3,5-Tris(4-hydroxy-phenyl)pyrazole]", "values": [
      {"measurement": "activation of ERα versus ERβ", "setting": "[2]", "value": "exclusively activates ERα but not ERβ"}
    ]},
    {"compound": "CC/C(=C(\\c1ccccc1)c1ccc(OCCN(C)C)cc1)c1ccccc1", "note": "[tamoxifen]", "values": [
      {"measurement": "BCAT1 expression in kidney, WT mice", "setting": "[3]", "value": "induced"},
      {"measurement": "CYP7B1 expression in kidney, WT mice", "setting": "[3]", "value": "induced by E2 but not by tamoxifen"},
      {"measurement": "TF expression in kidney, WT mice", "setting": "[3]", "value": "induced"},
      {"measurement": "BCAT1 expression in kidney, ERαERβKO mice", "setting": "[1]; [9]", "value": "did not"},
      {"measurement": "TF expression in kidney, ERαERβKO mice (express only ΔAF1-ERα)", "setting": "[1]; [9]", "value": "Neither compound could induce TF expression"}
    ]},
    {"compound": "estrogen", "values": [
      {"measurement": "GADD45G expression in kidney", "setting": "[4]", "value": "induced expression"},
      {"measurement": "regulation of STAT5A and GADD45G in rat kidney", "setting": "[5]; 20 μg/kg/day E2 six weeks, FIG. 4", "value": "occurred in rat kidney juxtamedullary region"},
      {"measurement": "GADD45G regulation in kidney across species", "setting": "[5]; mouse and rat", "value": "Regulated in multiple species (mouse and rat)"},
      {"measurement": "STAT5A regulation in kidney across species", "setting": "[5]; mouse and rat", "value": "Regulated in multiple species (mouse and rat)"},
      {"measurement": "FSHb expression in pituitary", "setting": "[6]", "value": "repressed"},
      {"measurement": "GADD45G expression in pituitary", "setting": "[6]", "value": "induced"},
      {"measurement": "STAT5B expression in pituitary", "setting": "[6]", "value": "induced"},
      {"measurement": "FSHb expression in pituitary", "setting": "[6]; listed as estrogens", "value": "Repressed by estrogens"},
      {"measurement": "GADD45G expression in pituitary", "setting": "[6]; listed as estrogens", "value": "Induced by estrogens"},
      {"measurement": "STAT5B expression in pituitary", "setting": "[6]; listed as estrogens", "value": "Induced by estrogens"},
      {"measurement": "mechanism of induction of BCAT1 in kidney (ERα AF1 or AF2)", "setting": "[1]; [10]", "value": "Mechanism is ERα AF1 + AF2 dependent"},
      {"measurement": "mechanism of induction of CYP7B1 in kidney (ERα AF1 or AF2)", "setting": "[1]; [10]", "value": "Mechanism is ERα AF2 dependent"},
      {"measurement": "mechanism of induction of TF (Tissue Factor) in kidney (ERα AF1 or AF2)", "setting": "[1]; [10]", "value": "Mechanism is ERα AF1 dependent"},
      {"measurement": "ABCC3 expression in kidney", "setting": "[7]; mRNA level", "value": "induced expression"},
      {"measurement": "NTT73 expression in kidney", "setting": "[7]; mRNA level", "value": "induced expression"},
      {"measurement": "BCAT1 expression in kidney", "setting": "[7]; mouse, in vivo", "value": "induced expression"},
      {"measurement": "BHMT expression in kidney", "setting": "[7]; mouse, in vivo", "value": "repressed expression"},
      {"measurement": "SAHH expression in kidney", "setting": "[7]; mouse, in vivo", "value": "repressed expression"},
      {"measurement": "STAT5A expression in kidney", "setting": "[7]; mouse, in vivo", "value": "induced expression"},
      {"measurement": "Tissue Factor expression in kidney", "setting": "[7]; mouse, in vivo", "value": "induced expression"},
      {"measurement": "BHMT expression in kidney", "setting": "[7]; mouse, in vivo, listed as estrogens", "value": "A repression by estrogens"},
      {"measurement": "Deiodinase, type II expression in uterus", "setting": "[8]; [11]", "value": "induced"},
      {"measurement": "IGFBP4 expression in uterus", "setting": "[8]; [11]", "value": "induced"},
      {"measurement": "Procollagen, type I, alpha 1 expression in uterus", "setting": "[8]; [11]", "value": "induced"},
      {"measurement": "SFRP4 expression in uterus", "setting": "[8]; [11]", "value": "induced"},
      {"measurement": "Scavenger receptor expression in uterus", "setting": "[8]; [11]", "value": "repressed"},
      {"measurement": "vimentin expression in uterus", "setting": "[8]; [11]", "value": "induced"},
      {"measurement": "AI121305 expression in uterus", "setting": "[8]; mouse, in vivo", "value": "induced"},
      {"measurement": "ALOX15 expression in uterus", "setting": "[8]; mouse, in vivo", "value": "induced"},
      {"measurement": "BCAT1 expression in uterus", "setting": "[8]; mouse, in vivo", "value": "induced"},
      {"measurement": "C3 expression in uterus", "setting": "[8]; mouse, in vivo", "value": "induced"},
      {"measurement": "CEBPb expression in uterus", "setting": "[8]; mouse, in vivo", "value": "induced"},
      {"measurement": "EGR1 expression in uterus", "setting": "[8]; mouse, in vivo", "value": "induced"},
      {"measurement": "FOS expression in uterus", "setting": "[8]; mouse, in vivo", "value": "induced"},
      {"measurement": "MAP2k1 expression in uterus", "setting": "[8]; mouse, in vivo", "value": "induced"},
      {"measurement": "SiAMOX expression in uterus", "setting": "[8]; mouse, in vivo", "value": "induced"}
    ]}
  ]
}
